In US20250145600A1, “2-((4-((S)-2-(4-CHLORO-2-FLUOROPHENYL)-2-METHYLBENZO[D][1,3]DIOXOL-4-YL)PIPERIDIN-1-YL)METHYL)-1-(((S)-OXETAN-2-YL)METHYL)-1H-IMIDAZOLE DERIVATIVES AS ACTIVATORS OF THE GLP1 RECEPTOR FOR THE TREATMENT OF OBESITY” (Novartis AG, priority 2022, published 2025):

Molecular target: human GLP1R (hGLP1R) (Homo sapiens, UniProt P43220)
Test: Human GLP1R β-arrestin recruitment assay (PathHunter)
Type: cell-based
Set-up: insert synthesized by GeneArt 93-0164 (CHO-K1-EA parental cells); 93-0491 (pCMV PK vector bundle)
Conditions: CHO-hGLP1R-β-arrestin cells
Description: Compounds of formula (I) according to the invention were tested in the following cellular assays that measure the intracellular cAMP concentration, beta-arrestin recruitment and receptor internalization. The cAMP is generated by the activation of GLP1R. The extent to which the GLP1R is internalized into the cell and away from the plasma membrane following activation is also shown in Table 2. EC50 for each assay is defined as the concentration of the compound that leads to half of the maximum response (after baseline correction). Emax is defined as the maximum response observed for the test compound, normalized to the maximum response observed for the endogenous ligand (GLP1(7-36)) to GLP1R.
Human GLP1R β-Arrestin Recruitment Assay
The extent to which agonists recruited β-arrestin was measured using the PathHunter® β-arrestin assay (DiscoverX). This assay measures binding of β-arrestin to the receptor using an enzyme complementation approach. […] When β-arrestin is recruited to the receptor the enzyme becomes active and generates luminescence in the presence of a chemiluminescent substrate (PathHunter® Detection Kit, DiscoverX cat #93-0001). Luminescence can be measured on a relevant detector. CHO-hGLP1R-β-arrestin cells stably overexpressing hGLP1R with Prolink tag and β-arrestin with EA tag were seeded at 20 μL per well in white 384-well poly-D-Lysine coated plates (Greiner Bio One, cat #781945) in Plating Reagent 2 (DiscoverX, cat #93-0563R^2A), and incubated overnight at 37° C., 5% CO2 with humidity. The following day, agonists were prepared at 5 times the final required concentration. To generate triplicate dose response curves, compounds were serially diluted 3-fold in assay buffer (HBSS, 10 mM Hepes and 0.1% BSA), then added to the cell assay plate to a final volume of 25 μL and final top concentrations starting at 30 μM. In the same plate and assay buffer as the tested compounds, were EC100 control wells containing GLP1 (7-36) peptide (Bachem, cat #H-6795) at a final concentration of 1 μM and also EC0 control wells containing no compound. The plate was incubated at 37° C., 5% CO2 with humidity for 2 h after adding the compounds to the cells. Then the detection reagent was prepared (19 parts cell assay buffer, 5 parts substrate reagent 1 and 1 part substrate reagent 2 as per manufacturers recommendations, DiscoverX cat #93-0001), and 12 μL were added per well to the cell assay plate. The plate was incubated for an additional hour in the dark at RT. Luminescence was then measured with an Envision 2104 Multilabel reader with “TRF Light Unit, 337 nm” (Perkin Elmer) using the Ultra-Sensitive protocol setting “384-well US luminescence detector” with the 384-well luminescence aperture, 0.1 sec per well. β-arrestin recruitment was calculated and expressed as percent of the GLP1 (7-36) EC100 control wells: [(sample signal−mean EC0 signal)/(mean EC100 of GLP1 (7-36) signal−mean EC0 signal)]*100 using Microsoft Excel. Curve fitting for EC50 determinations was performed using GraphPad Prism. The 4-parameter logistic model, Hill slope was used: Y=Bottom+(Top−Bottom)/(1+10^((Log EC50−X)*Hill Slope)), where Y is the functional response; X is the compound concentration; bottom is A0 or the minimum value (at 0 dose); top is Ainf or the maximum value (at infinite dose); EC50 is the point of inflection (i.e. the point on the sigmoid shaped curve halfway between A0 and Ainf). The EC50 value was calculated in μM. Emax is the maximal activity detected within the concentration range, derived from the fitted curve relative to GLP1(7-36).
PathHunter CHO-K1-EA parental cells (DiscoverX, cat #93-0164) were plated at a density of 2×10^6 cells per T75 cm^2 flask in 22 mL of complete medium (AssayComplete Cell Culture kit 107, DiscoverX, cat #92-3107G). The following day, the medium was replaced with 22 mL of fresh medium with no antibiotics and cells were transfected as follows. […]

human GLP1R (hGLP1R), sequence (P43220 24-463): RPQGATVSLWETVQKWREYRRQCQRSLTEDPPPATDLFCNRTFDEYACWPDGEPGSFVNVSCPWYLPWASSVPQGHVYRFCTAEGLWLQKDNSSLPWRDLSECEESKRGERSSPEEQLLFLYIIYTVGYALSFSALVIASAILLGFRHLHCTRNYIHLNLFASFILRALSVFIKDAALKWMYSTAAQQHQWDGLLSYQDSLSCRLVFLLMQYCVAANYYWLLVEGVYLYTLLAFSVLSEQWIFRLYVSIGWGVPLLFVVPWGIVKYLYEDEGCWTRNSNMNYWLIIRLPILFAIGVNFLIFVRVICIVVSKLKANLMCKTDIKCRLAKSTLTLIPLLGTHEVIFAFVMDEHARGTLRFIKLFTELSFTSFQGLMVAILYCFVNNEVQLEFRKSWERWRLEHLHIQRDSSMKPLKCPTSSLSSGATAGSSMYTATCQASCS

`Cc1c(-c2ccc(C(=O)O)o2)nc(CN2CCC(c3cccc4c3O[C@@](C)(c3ccc(Cl)cc3F)O4)CC2)n1C[C@@H]1CCO1` [Compound C-24, 5-(2-((4-((S)-2-(4-chloro-2-fluorophenyl)-2-methylbenzo[d][1,3]dioxol-4-yl)piperidin-1-yl)methyl)-5-methyl-1-(((S)-oxetan-2-yl)methyl)-1H-imidazol-4-yl)furan-2-carboxylic acid] gave an EC50 (2 h at 37° C., top concentration 30 μM, read-out: Beta-Arrestin assay EC50 Mean) greater than 30 µM and an Emax (relative to GLP1(7-36), read-out: Beta-Arrestin assay Emax (%)) of 1%.
